Measurements: paper PMC7408562, “The Interaction of Temozolomide with Blood Components Suggests the Potential Use of Human Serum Albumin as a Biomimetic Carrier for the Drug” (Biomolecules, 2020)

Biological target: T1, human serum albumin (HSA) (Homo sapiens, UniProt P02768)
T1 construct: gene ALB
Assay: intrinsic tryptophan fluorescence quenching titration (water, […] °C; also pH […] phosphate buffer), supported by delayed TMZ hydrolysis
Type: binding

T1 sequence (P02768 25-609): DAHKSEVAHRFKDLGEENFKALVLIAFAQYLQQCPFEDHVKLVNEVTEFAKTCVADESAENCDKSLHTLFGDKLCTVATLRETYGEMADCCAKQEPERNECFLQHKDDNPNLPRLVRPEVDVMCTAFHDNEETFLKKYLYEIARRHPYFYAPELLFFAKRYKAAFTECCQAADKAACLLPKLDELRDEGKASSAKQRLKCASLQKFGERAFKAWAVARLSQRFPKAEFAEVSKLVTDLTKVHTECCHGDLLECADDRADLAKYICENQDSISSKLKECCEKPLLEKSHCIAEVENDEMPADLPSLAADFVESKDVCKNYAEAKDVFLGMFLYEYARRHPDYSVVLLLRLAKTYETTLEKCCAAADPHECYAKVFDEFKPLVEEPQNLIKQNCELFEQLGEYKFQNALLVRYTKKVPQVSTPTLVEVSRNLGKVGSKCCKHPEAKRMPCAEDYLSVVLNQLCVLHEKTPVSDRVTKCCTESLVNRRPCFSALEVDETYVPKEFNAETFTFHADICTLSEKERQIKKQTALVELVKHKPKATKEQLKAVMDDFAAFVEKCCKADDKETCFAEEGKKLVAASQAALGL

Kd: ~200 µM
Compound: Cn1nnc2c(C(N)=O)ncn2c1=O [TMZ, Temozolomide]
